From the supplement of paper PMC4932681

Legend:
MCF-7 [1] = assay: relative IC50 (midpoint of fitted logistic curve, plateau may be below 50% inhibition; CellTiter-Glo viability); higher = less potent; details: 72 h
Description: (§1)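 FIMM FO2B library drugs were plated at 5 concentrations spanning a 10,000-fold range in 384-well plates. Cells were incubated for 72 h at 37 °C and viability was read by CellTiter-Glo, normalised to DMSO (0% inhibition) and 100 µM benzethonium chloride (100% inhibition). IC50 values come from logistic dose-response fits (Breeze pipeline). Tamoxifen-resistant lines and the 'in 1µM tamoxifen' parental arms were tested in medium with 1 µM 4-OH-tamoxifen.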

T-47D Tam1 [2] = assay: as above; details: 4-OH-tamoxifen in medium 1 µM; 72 h
Description: as §1

T-47D [3] = assay: as above; details: 72 h
Description: as §1

BT-474 Tam1 [4] = assay: as above; details: 4-OH-tamoxifen in medium 1 µM; 72 h
Description: as §1

MCF-7 Tam1 [5] = assay: as above; details: 4-OH-tamoxifen in medium 1 µM; 72 h
Description: as §1

BT-474 [6] = assay: as above; details: 72 h
Description: as §1

BT-474 Tam2 [7] = assay: as above; details: 4-OH-tamoxifen in medium 1 µM; 72 h
Description: as §1

MCF-7 [8] = assay: drug sensitivity score (DSS) (DSS (dimensionless)); higher = more sensitive; extreme values may be limits of the assay; details: 72 h
Description: (§2)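 FIMM FO2B library drugs were tested at 5 concentrations (10,000-fold range) for 72 h, with CellTiter-Glo viability normalised to DMSO and benzethonium chloride controls. The Drug Sensitivity Score (DSS) is computed from the fitted logistic dose-response curve (area-based; 0 = inactive). Resistant lines and the 'in 1µM tamoxifen' arms were tested in 1 µM 4-OH-tamoxifen.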

T-47D Tam1 [9] = assay: as above; details: 4-OH-tamoxifen in medium 1 µM; 72 h
Description: as §2

T-47D Tam2 = assay: as above; details: 4-OH-tamoxifen in medium 1 µM; 72 h
Description: as §2

ZR-75-1 Tam2 [10] = assay: as above; details: 4-OH-tamoxifen in medium 1 µM; 72 h
Description: as §2

T-47D [11] = assay: as above; details: 72 h
Description: as §2

BT-474 Tam1 [12] = assay: as above; details: 4-OH-tamoxifen in medium 1 µM; 72 h
Description: as §2

MCF-7 Tam1 [13] = assay: as above; details: 4-OH-tamoxifen in medium 1 µM; 72 h
Description: as §2

ZR-75-1 [14] = assay: as above; details: 72 h
Description: as §2

BT-474 [15] = assay: as above; details: 72 h
Description: as §2

BT-474 Tam2 [16] = assay: as above; details: 4-OH-tamoxifen in medium 1 µM; 72 h
Description: as §2

ZR-75-1 Tam1 [17] = assay: as above; details: 4-OH-tamoxifen in medium 1 µM; 72 h
Description: as §2

ZR-75-1 [18] = assay: relative IC50 (midpoint of fitted logistic curve, plateau may be below 50% inhibition; CellTiter-Glo viability); higher = less potent; details: 72 h
Description: as §1

ZR-75-1 Tam1 [19] = assay: as above; details: 4-OH-tamoxifen in medium 1 µM; 72 h
Description: as §1

ZR-75-1 Tam2 [20] = assay: as above; details: 4-OH-tamoxifen in medium 1 µM; 72 h
Description: as §1

Row | SMILES | relative IC50 (MCF-7 [1]; 4-OH-tamoxifen in medium 0 µM) | relative IC50 (T-47D Tam1 [2]) | relative IC50 (T-47D [3]; 4-OH-tamoxifen in medium 1 µM) | relative IC50 (BT-474 Tam1 [4]) | relative IC50 (MCF-7 Tam1 [5]) | relative IC50 (BT-474 [6]; 4-OH-tamoxifen in medium 0 µM) | relative IC50 (BT-474 [6]; 4-OH-tamoxifen in medium 1 µM) | relative IC50 (BT-474 Tam2 [7]) | relative IC50 (T-47D [3]; 4-OH-tamoxifen in medium 0 µM) | relative IC50 (MCF-7 [1]; 4-OH-tamoxifen in medium 1 µM) | drug sensitivity score (MCF-7 [8]; 4-OH-tamoxifen in medium 0 µM) | drug sensitivity score (MCF-7 [8]; 4-OH-tamoxifen in medium 1 µM) | drug sensitivity score (T-47D Tam1 [9]) | drug sensitivity score (T-47D Tam2) | drug sensitivity score (ZR-75-1 Tam2 [10]) | drug sensitivity score (T-47D [11]; 4-OH-tamoxifen in medium 0 µM) | drug sensitivity score (T-47D [11]; 4-OH-tamoxifen in medium 1 µM) | drug sensitivity score (BT-474 Tam1 [12]) | drug sensitivity score (MCF-7 Tam1 [13]) | drug sensitivity score (ZR-75-1 [14]; 4-OH-tamoxifen in medium 0 µM) | drug sensitivity score (ZR-75-1 [14]; 4-OH-tamoxifen in medium 1 µM) | drug sensitivity score (BT-474 [15]; 4-OH-tamoxifen in medium 0 µM) | drug sensitivity score (BT-474 [15]; 4-OH-tamoxifen in medium 1 µM) | drug sensitivity score (BT-474 Tam2 [16]) | drug sensitivity score (ZR-75-1 Tam1 [17]) | relative IC50 (ZR-75-1 [18]; 4-OH-tamoxifen in medium 0 µM) | relative IC50 (ZR-75-1 Tam1 [19]) | relative IC50 (ZR-75-1 Tam2 [20]) | relative IC50 (ZR-75-1 [18]; 4-OH-tamoxifen in medium 1 µM)
1 | O=C1c2c(O)ccc(O)c2C(=O)c2c(NCCNCCO)ccc(NCCNCCO)c21 [Mitoxantrone] | > 1 µM | 0.0368 µM | > 1 µM | > 1 µM | > 1 µM | > 1 µM | > 1 µM | > 1 µM |  | > 1 µM | 0 | 0 | 7.08 | 1.21 | 4.66 | 2.79 | 0 | 0 | 0 | 3.03 | 2.35 | 0 | 0 | 0 | 1.67 |  |  |  | 
2 | Cc1ccc(Nc2nccc(N(C)c3ccc4c(C)n(C)nc4c3)n2)cc1S(N)(=O)=O [Pazopanib] | > 10 µM | > 10 µM | > 10 µM |  | > 10 µM | > 10 µM | > 10 µM | > 10 µM |  |  | 0 | 0.177 | 0 | 0.821 | 0.0921 | 0.231 | 0 | 0.0636 | 0 | 0 | 0 | 0 | 0 | 0 | 0 | > 10 µM | > 10 µM |  | 
3 | CC(C)(C)c1cc(NC(=O)Nc2ccc(-c3cn4c(n3)sc3cc(OCCN5CCOCC5)ccc34)cc2)no1 [Quizartinib (AC220)] | > 1 µM |  | > 1 µM | > 1 µM | > 1 µM | > 1 µM | > 1 µM | > 1 µM |  | > 1 µM | 0 | 0 | 0 | 0.279 | 0 | 0 | 0 | 0 | 0 | 0 | 0 | 0 | 0 | 0 | 0 | > 1 µM | > 1 µM | > 1 µM | > 1 µM
4 | COc1cc(F)c(F)c(Nc2ccc(I)cc2F)c1NS(=O)(=O)C1(C[C@H](O)CO)CC1 [Refametinib (RDEA119)] | 1.41 µM | 0.335 µM |  | 0.571 µM | 0.389 µM | > 10 µM | 0.7 µM |  |  | 1.08 µM | 3.75 | 3.88 | 4.09 | 1.2 | 0 | 1.6 | 0.324 | 3.68 | 3.77 | 0.912 | 0 | 0 | 6.44 | 0.629 | 0 |  |  |  | > 10 µM
5 | C1CN1c1nc(N2CC2)nc(N2CC2)n1 [Triethylenemelamine] | > 10 µM |  | > 10 µM | > 10 µM | > 10 µM | > 10 µM | > 10 µM | > 10 µM | > 10 µM | > 10 µM | 0 | 0 | 0.0501 | 0.12 | 0 | 0 | 0 | 0 | 0 | 0 | 0 | 0 | 0 | 0 | 0 | > 10 µM | > 10 µM | > 10 µM | > 10 µM

More lines, main results first:

Row | relative IC50 (MCF-7 [1]; 4-OH-tamoxifen in medium 0 µM) | relative IC50 (T-47D Tam1 [2]) | relative IC50 (T-47D [3]; 4-OH-tamoxifen in medium 1 µM) | relative IC50 (BT-474 Tam1 [4]) | relative IC50 (MCF-7 Tam1 [5]) | relative IC50 (BT-474 [6]; 4-OH-tamoxifen in medium 0 µM) | relative IC50 (BT-474 [6]; 4-OH-tamoxifen in medium 1 µM) | relative IC50 (BT-474 Tam2 [7]) | relative IC50 (T-47D [3]; 4-OH-tamoxifen in medium 0 µM) | SMILES | relative IC50 (MCF-7 [1]; 4-OH-tamoxifen in medium 1 µM) | drug sensitivity score (MCF-7 [8]; 4-OH-tamoxifen in medium 0 µM) | drug sensitivity score (MCF-7 [8]; 4-OH-tamoxifen in medium 1 µM) | drug sensitivity score (T-47D Tam1 [9]) | drug sensitivity score (T-47D Tam2) | drug sensitivity score (ZR-75-1 Tam2 [10]) | drug sensitivity score (T-47D [11]; 4-OH-tamoxifen in medium 0 µM) | drug sensitivity score (T-47D [11]; 4-OH-tamoxifen in medium 1 µM) | drug sensitivity score (BT-474 Tam1 [12]) | drug sensitivity score (MCF-7 Tam1 [13]) | drug sensitivity score (ZR-75-1 [14]; 4-OH-tamoxifen in medium 0 µM) | drug sensitivity score (ZR-75-1 [14]; 4-OH-tamoxifen in medium 1 µM) | drug sensitivity score (BT-474 [15]; 4-OH-tamoxifen in medium 0 µM) | drug sensitivity score (BT-474 [15]; 4-OH-tamoxifen in medium 1 µM) | drug sensitivity score (BT-474 Tam2 [16]) | drug sensitivity score (ZR-75-1 Tam1 [17]) | relative IC50 (ZR-75-1 [18]; 4-OH-tamoxifen in medium 0 µM) | relative IC50 (ZR-75-1 Tam1 [19]) | relative IC50 (ZR-75-1 Tam2 [20]) | relative IC50 (ZR-75-1 [18]; 4-OH-tamoxifen in medium 1 µM)
6 | > 40 µM | > 40 µM | > 40 µM |  | > 40 µM | 40 µM |  | > 40 µM |  | N[C@@H](CSC(c1ccccc1)(c1ccccc1)c1ccccc1)C(=O)O [S-trityl-L-cysteine] |  | 0 | 1.69 | 0 | 0.0046 | 0.627 | 0.0068 | 0 | 1.68 | 0 | 1.65 | 0 | 0 | 1.41 | 0 | 0 |  | > 40 µM |  | > 40 µM
7 | > 10 µM |  | > 10 µM | > 10 µM | > 10 µM | > 10 µM | > 10 µM | > 10 µM | > 10 µM | CC1=C(/C=C/C(C)=C/C=C/C(C)=C/C(=O)O)C(C)(C)CCC1 [Tretinoin] |  | 0 | 0.52 | 0.561 | 0.122 | 0 | 0 | 0 | 0 | 0 | 0 | 0 | 0 | 0 | 0 | 0 | > 10 µM | > 10 µM | > 10 µM | > 10 µM
8 |  | > 10 µM | > 10 µM | 3.12 µM | > 10 µM | > 10 µM |  |  | > 10 µM | CN1CCc2c(c3ccccc3n2Cc2ccc(C(=O)NO)cc2)C1 [Tubastatin A] |  | 0 | 0.884 | 0 | 0 | 0.301 | 0 | 0 | 1.77 | 0 | 0.27 | 0.715 | 0 | 0.725 | 0.145 | 0.0626 |  |  |  | 
